The results in this text go back to US20050245472A1, “Engineered rnai adenovirus silencing expression (erase) of dna reair proteins” (The Johns Hopkins University, priority 2003, published 2005).

This assay concerns DU 145 cells. As to the kind of experiment: Clonogenic survival after ionizing radiation. As to conditions: DU 145, 10 μM, one hour before and 24 hours after irradiation, vs DMSO. Format: cell-based, human.

Structures are written as SMILES.

For `O=c1cc(N2CCOCC2)oc2c(-c3ccccc3)cccc12` [LY294002], under “DRF at 80% clonogenic cell killing”, the “DRF, ionizing radiation” value came to 1.1. Turning to `COC[C@H]1OC(=O)c2coc3c2[C@@]1(C)C1=C(C3=O)[C@@H]2CCC(=O)[C@@]2(C)C[C@H]1OC(C)=O` [Wortmannin], the “DRF, ionizing radiation” value was determined as 1.4.
